Measured values reported in patent US20230382924A1, “MODULATORS OF CYSTIC FIBROSIS TRANSMEMBRANE CONDUCTANCE REGULATOR” (VERTEX PHARMACEUTICALS INCORPORATED, priority 2020, published 2023).

Key:
CFTR [1] = target: T1, CFTR (Homo sapiens, UniProt P13569); experiment: Membrane Potential Dye, Enteroid Assay B; assay type: cell-based; details: Table 9; for EC50: read-out: Ent. B EC50
Method: Base medium (ADF+++) consisted of Advanced DMEM/Ham's F12, 2 mM Glutamax, 10 mM HEPES, […] penicillin/streptomycin.
Bath 1 Buffer consisted of 1 mM MgCl2, 160 mM NaCl, 4.5 mM KCl, 10 mM HEPES, 10 mM Glucose, 2 mM CaCl2).
Chloride Free Buffer consisted of 1 mM Magnesium Gluconate, 2 mM Calcium Gluconate, 4.5 mM Potassium Gluconate, 160 mM Sodium Gluconate, 10 mM HEPES, 10 mM Glucose.
Bath 1 Dye Solution consisted of Bath 1 Buffer, 0.04% Pluronic F127, 20 μM Methyl Oxonol, 30 μM CaCCinh-A01, 30 μM Chicago Sky Blue.
Chloride Free Dye Solution consisted of Chloride Free Buffer, 0.04% Pluronic F127, 20 μM Methyl Oxonol, 30 μM CaCCinh-A01, 30 μM Chicago Sky Blue.
3. Enteroid Cell Harvesting and Seeding
Cells were recovered in cell recovery solution, collected by centrifugation at 650 rpm for 5 min at 4° C., resuspended in TryPLE and incubated for 5 min at 37° C. Cells were then collected by centrifugation at 650 rpm for 5 min at 4° C. and resuspended in IEMM containing 10 μM ROCK inhibitor (RI).
5. Membrane Potential Dye, Enteroid Assay B
Briefly, cells were washed 5 times in Bath 1 Buffer. Bath 1 Dye Solution was added and the cells were incubated for 25 min at room temperature. Following dye incubation, cells were washed 3 times in Chloride Free Dye Solution. Chloride transport was initiated by addition of Chloride Free Dye Stimulation Solution and the fluorescence signal was read for 15 min.

CFTR [2] = target: T1, CFTR; experiment: Membrane Potential Dye, Enteroid Assay A; assay type: cell-based; details: for EC50: read-out: Ent. A EC50
Method in brief: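 Enteroid cells were loaded with methyl oxonol membrane potential dye (plus CaCCinh-A01 and Chicago Sky Blue) for 25 min at room temperature. Chloride transport was started by switching to chloride-free gluconate stimulation solution, with fluorescence read for 15 min. Activity was expressed as % of a triple-combination CFTR modulator control (3 μM, 3 μM, 300 nM acute).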

T1 sequence (P13569 with tags, fused parts or gaps DEL508-508): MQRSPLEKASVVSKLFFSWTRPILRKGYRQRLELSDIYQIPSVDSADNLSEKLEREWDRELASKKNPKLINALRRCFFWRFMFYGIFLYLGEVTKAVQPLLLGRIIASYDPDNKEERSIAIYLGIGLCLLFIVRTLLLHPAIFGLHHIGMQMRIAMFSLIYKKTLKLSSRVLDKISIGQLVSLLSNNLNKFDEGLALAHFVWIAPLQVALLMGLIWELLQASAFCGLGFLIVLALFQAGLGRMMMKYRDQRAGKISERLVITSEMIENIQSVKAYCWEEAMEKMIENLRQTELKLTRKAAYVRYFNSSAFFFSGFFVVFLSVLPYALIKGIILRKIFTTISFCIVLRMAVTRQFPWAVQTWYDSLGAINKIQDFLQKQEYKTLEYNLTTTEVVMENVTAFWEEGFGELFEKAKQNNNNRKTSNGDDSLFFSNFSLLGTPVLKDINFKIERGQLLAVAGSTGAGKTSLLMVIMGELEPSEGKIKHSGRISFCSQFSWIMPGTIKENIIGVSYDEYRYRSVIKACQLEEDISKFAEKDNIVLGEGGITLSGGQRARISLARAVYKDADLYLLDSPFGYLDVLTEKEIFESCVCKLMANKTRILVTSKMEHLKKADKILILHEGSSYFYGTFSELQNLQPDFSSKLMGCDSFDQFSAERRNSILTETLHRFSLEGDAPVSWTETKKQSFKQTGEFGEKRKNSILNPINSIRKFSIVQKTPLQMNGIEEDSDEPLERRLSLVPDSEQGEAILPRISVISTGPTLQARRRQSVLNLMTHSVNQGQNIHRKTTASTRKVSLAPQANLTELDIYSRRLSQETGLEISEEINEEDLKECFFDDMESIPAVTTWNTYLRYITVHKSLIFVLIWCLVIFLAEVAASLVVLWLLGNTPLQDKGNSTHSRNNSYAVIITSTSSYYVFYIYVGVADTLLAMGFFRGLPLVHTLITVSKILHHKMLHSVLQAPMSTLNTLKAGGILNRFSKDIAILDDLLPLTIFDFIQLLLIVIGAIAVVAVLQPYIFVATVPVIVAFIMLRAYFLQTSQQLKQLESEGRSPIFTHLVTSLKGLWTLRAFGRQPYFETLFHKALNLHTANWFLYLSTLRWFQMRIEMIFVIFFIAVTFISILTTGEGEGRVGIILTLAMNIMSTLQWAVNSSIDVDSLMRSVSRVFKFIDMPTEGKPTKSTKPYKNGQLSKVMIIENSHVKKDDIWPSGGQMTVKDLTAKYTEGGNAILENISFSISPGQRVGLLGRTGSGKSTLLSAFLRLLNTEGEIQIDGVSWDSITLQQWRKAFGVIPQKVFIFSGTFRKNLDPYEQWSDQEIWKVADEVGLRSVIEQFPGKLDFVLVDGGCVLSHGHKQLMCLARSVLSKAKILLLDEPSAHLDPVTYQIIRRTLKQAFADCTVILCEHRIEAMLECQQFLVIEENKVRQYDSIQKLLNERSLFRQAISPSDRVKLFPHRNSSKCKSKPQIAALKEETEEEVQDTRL

| EC50 (CFTR [1]) | Ent. B Max Activity (CFTR [1]) | SMILES | also measured |
| --- | --- | --- | --- |
| < 1000 nM | +++ (+++ is >60%) | Cc1cccc(C)c1-c1cc2nc(n1)NS(=O)(=O)c1cccc(c1)C(=O)NCc1cc(Cl)ccc1O2 [Compound 295] | – |
| 3000 to 30000 nM | ++ (++ is 30-60%) | Cc1cccc(C)c1-c1cc2nc(n1)NS(=O)(=O)c1cccc(c1)C(=O)N[C@H](C)[C@H](C)O2 [Compound 484] | – |
| < 1000 nM | +++ (+++ is >60%) | Cc1cccc(/C=C/C(C)C)c1-c1cc2nc(n1)NS(=O)(=O)c1cccc(c1)C(=O)N[C@H](CC(C)C)CO2 [Compound 390] | – |

The next lines start with the compound.

| SMILES | EC50 (CFTR [1]) | Ent. B Max Activity (CFTR [1]) | also measured |
| --- | --- | --- | --- |
| Cc1cccc(C)c1-c1cc2nc(n1)NS(=O)(=O)c1cccc(c1)C(=O)NC[C@H](c1ccc(C[Si](C)(C)C)cc1)O2 (stereo in doubt) [Compound 126] | < 1000 nM | – | – |
| Cc1cccc(C)c1-c1cc2nc(n1)NS(=O)(=O)c1cccc(c1)C(=O)NC[C@H](c1ccc(CC[Si](C)(C)C)cc1)O2 (stereo in doubt) [Compound 124] | < 1000 nM | – | – |
| O=C1N[C@@H]2CCCCCCCCc3ccccc3-c3cc(nc(n3)NS(=O)(=O)c3cccc1c3)OC2 [Compound 37, (18R)-30-Oxa-26λ^6-thia-19,27,29,32-tetraazapentacyclo[16.11.2.13,28.121,25.04,9]tritriaconta-1,3(32),4(9),5,7,21(33),22,24,28-nonaene-20,26,26-trione] | < 1000 nM | +++ (+++ is >60%) | – |
| Cc1cccc2c1-c1cc3nc(n1)NS(=O)(=O)c1cccc(c1)C(=O)N[C@H](CCCCCCCC2)CO3 [Compound 213] | < 1000 nM | +++ (+++ is >60%) | – |
| Cc1cccc(C)c1-c1cc2nc(n1)NS(=O)(=O)c1cc(n(C)n1)C(=O)N[C@H](C)C(c1ccc(C(C)(C)C)cc1)O2 (stereo in doubt) [Compound 172] | < 1000 nM | ++ (++ is 30-60%) | – |
| Cc1cccc(C)c1-c1cc2nc(n1)NS(=O)(=O)c1cc(n(C)n1)C(=O)NCC(CC(C)C)(CC(C)C)CO2 [Compound 173] | 1000 to 3000 nM | ++ (++ is 30-60%) | – |
| Cc1cccc(C)c1-c1cc2nc(n1)NS(=O)(=O)c1cccc(c1)C(=O)NC[C@@H](c1ccccn1)O2 [Compound 233] | – | – | Ent. A Max Activity (CFTR [2]; Table 8): + (+ is <30%) |
| Cc1cccc(C)c1-c1cc2nc(n1)NS(=O)(=O)c1cccc(c1)C(=O)NCC1(CCN(C(=O)c3ccccc3)CC1)CO2 [Compound 474] | – | – | EC50 (CFTR [2]; Enteroid Assay A): 3000 to 30000 nM |
| CCC[C@H](NC(=O)OC(C)(C)C)C(=O)N1CCC2(CC1)CNC(=O)c1cccc(c1)S(=O)(=O)Nc1nc(cc(-c3c(C)cccc3C)n1)OC2 [Compound 469] | – | – | Ent. A Max Activity (CFTR [2]; Enteroid Assay A): ++ (++ is 30-60%); EC50 (CFTR [2]; Enteroid Assay A): 3000 to 30000 nM |
| Cc1cccc(C)c1-c1cc2nc(n1)NS(=O)(=O)c1ccccc1C(=O)NC(CC(C)C)CO2 (stereo not drawn) [Compound 223] | – | – | Ent. A Max Activity (CFTR [2]; Table 9): + (+ is <30%) |
| Cc1cccc(C)c1-c1cc2nc(n1)NS(=O)(=O)c1cccc(c1)C(=O)NC(C)(CC(C)C)CO2 (stereo not drawn) [Compound 176] | – | – | Ent. A Max Activity (CFTR [2]; Table 9): +++ (+++ is >60%); EC50 (CFTR [2]; Table 9): < 1000 nM |
| Cc1ccc(Cc2cccc(C)c2-c2cc3nc(n2)NS(=O)(=O)c2cccc(c2)C(=O)N[C@H](CC(C)C)CO3)cc1 [Compound 394] | – | – | Ent. A Max Activity (CFTR [2]; Table 9): +++ (+++ is >60%); EC50 (CFTR [2]; Table 9): < 1000 nM |
| Cc1cccc(C)c1-c1cc2nc(n1)NS(=O)(=O)c1cccc(c1)C(=O)NC[C@@H](c1ccc(C(C)(C)C(F)(F)F)cc1)O2 [Compound 262] | – | – | Ent. A Max Activity (CFTR [2]; Table 9): +++ (+++ is >60%); EC50 (CFTR [2]; Table 9): < 1000 nM |
| CCOc1ccccc1-c1cc2nc(n1)NS(=O)(=O)c1cccc(c1)C(=O)N[C@H](CC(C)C)CO2 [Compound 328] | – | – | Ent. A Max Activity (CFTR [2]; Enteroid Assay A): ++ (++ is 30-60%); EC50 (CFTR [2]; Enteroid Assay A): 1000 to 3000 nM |
| Cc1cccc(C)c1-c1cc2nc(n1)NS(=O)(=O)c1cccc(c1)C(=O)NCC(c1ccc(C(C)(C)O)cc1)O2 (stereo not drawn) [Compound 245] | – | – | EC50 (CFTR [2]; Table 8): 3000 to 30000 nM |
